Key:
AHR [1] = biological target: T1, AHR (Homo sapiens, UniProt P35869); assay: In vitro assay 1: antagonism in human cell line (transactivation assay, kynurenic acid prestimulated); conditions: Assay 1: AHR-luc Hum Antagonism IC50 [M], 150 μM kynurenic acid, 20 hours, firefly luciferase
T1 sequence (P35869 11-848): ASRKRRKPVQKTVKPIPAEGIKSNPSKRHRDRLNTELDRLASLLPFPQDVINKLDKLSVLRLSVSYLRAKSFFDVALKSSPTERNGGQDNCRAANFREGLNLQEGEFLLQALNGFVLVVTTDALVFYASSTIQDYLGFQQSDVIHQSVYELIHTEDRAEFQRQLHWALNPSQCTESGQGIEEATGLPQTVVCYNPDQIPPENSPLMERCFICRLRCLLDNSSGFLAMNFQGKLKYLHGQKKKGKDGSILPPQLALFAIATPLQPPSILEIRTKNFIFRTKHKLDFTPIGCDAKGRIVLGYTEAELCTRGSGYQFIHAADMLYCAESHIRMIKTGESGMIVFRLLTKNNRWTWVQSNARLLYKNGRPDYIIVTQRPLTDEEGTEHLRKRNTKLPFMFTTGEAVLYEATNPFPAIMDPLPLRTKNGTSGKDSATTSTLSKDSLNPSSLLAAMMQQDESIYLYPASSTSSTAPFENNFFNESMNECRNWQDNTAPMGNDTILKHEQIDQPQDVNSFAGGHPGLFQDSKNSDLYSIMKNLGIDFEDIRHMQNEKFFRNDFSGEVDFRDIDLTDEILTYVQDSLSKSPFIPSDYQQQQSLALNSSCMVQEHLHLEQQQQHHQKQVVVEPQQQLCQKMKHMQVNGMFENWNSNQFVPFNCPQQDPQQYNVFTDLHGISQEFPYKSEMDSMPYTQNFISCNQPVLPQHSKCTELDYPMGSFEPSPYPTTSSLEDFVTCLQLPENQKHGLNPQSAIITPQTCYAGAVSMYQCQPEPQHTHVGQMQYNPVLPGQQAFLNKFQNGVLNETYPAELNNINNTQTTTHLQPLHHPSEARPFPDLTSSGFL

AHR [2] = biological target: T1, AHR; assay: In vitro assay 2: agonism in human cell line (transactivation assay)
[3] = read-out: Assay 2: AHR-luc Hum Agonism IC50, no kynurenic acid, 20 hours, firefly luciferase
[4] = Assay 2: AHR-luc Hum Agonism IC50 [M], no kynurenic acid, 20 hours, firefly luciferase

Structure (SMILES): O=C(NC(CO)C1CCOCC1)c1cc(-c2ccc(Cl)cc2)nn(-c2cccc(F)c2)c1=O (single isomer, unassigned) [Example 151, 6-(4-Chlorophenyl)-2-(3-fluorophenyl)-N-[2-hydroxy-1-(tetrahydro-2H-pyran-4-yl)ethyl]-3-oxo-2,3-dihydropyridazine-4-carboxamide]
- IC50 (AHR [1]): 1.24e-07 M
- IC50 (AHR [2]; [3]): > 2e-05 M

Structure (SMILES): O=C(NC(CO)C(F)(F)F)c1cc(-c2ccc(OC(F)(F)F)cc2)nn(-c2cccc(F)c2)c1=O (single isomer, unassigned) [Example 171, 2-(3-Fluorophenyl)-3-oxo-N-(1,1,1-trifluoro-3-hydroxypropan-2-yl)-6-[4-(trifluoromethoxy)phenyl]-2,3-dihydropyridazine-4-carboxamide]
- IC50 (AHR [1]): 6.77e-07 M
- IC50 (AHR [2]; [3]): > 2e-05 M

Structure (SMILES): CC(O)C(C)NC(=O)c1cc(-c2ccc(OC(F)(F)F)cc2)nn(-c2cccc(F)c2)c1=O (single isomer, unassigned) [Example 180, 2-(3-Fluorophenyl)-N-(3-hydroxybutan-2-yl)-3-oxo-6-[4-(trifluoromethoxy)phenyl]-2,3-dihydropyridazine-4-carboxamide]
- IC50 (AHR [1]): 1.24e-07 M
- IC50 (AHR [2]; [4]): > 2e-05 M

Structure (SMILES): CC(O)C(NC(=O)c1cc(-c2ccc(Cl)cc2)nn(-c2cccc(F)c2)c1=O)C(F)(F)F (single isomer, unassigned) [Example 199, Isomer no. 2 of 6-(4-chlorophenyl)-2-(3-fluorophenyl)-3-oxo-N-(1,1,1-trifluoro-3-hydroxybutan-2-yl)-2,3-dihydropyridazine-4-carboxamide]
- IC50 (AHR [1]): 5.84e-07 M
- IC50 (AHR [2]; [3]): > 2e-05 M

Structure (SMILES): CC(NC(=O)c1cc(-c2ccc(C(F)(F)F)cc2)nn(-c2cccc(F)c2)c1=O)C(O)C(F)(F)F (single isomer, unassigned) [Example 269, Isomer no. 2 of 2-(3-fluorophenyl)-3-oxo-N-(4,4,4-trifluoro-3-hydroxybutan-2-yl)-6-[4-(trifluoromethyl)phenyl]-2,3-dihydropyridazine-4-carboxamide]
- IC50 (AHR [1]): > 2e-05 M
- IC50 (AHR [2]; [4]): 3.85e-09 M

Structure (SMILES): O=C(N[C@@H]1CCCC(F)(F)[C@H]1O)c1cc(-c2ccc(Cl)cc2)nn(-c2cccc(F)c2)c1=O (single isomer, unassigned) [Example 276, 6-(4-Chlorophenyl)-N-[(trans)-3,3-difluoro-2-hydroxycyclohexyl]-2-(3-fluorophenyl)-3-oxo-2,3-dihydropyridazine-4-carboxamide]
- IC50 (AHR [1]): 1.45e-07 M
- IC50 (AHR [2]; [3]): > 2e-05 M

Structure (SMILES): CC(C)(O)C(NC(=O)c1cc(-c2ccc(Cl)cc2)nn(-c2cccc(F)c2)c1=O)C(F)(F)F (single isomer, unassigned) [Example 278, 6-(4-Chlorophenyl)-2-(3-fluorophenyl)-3-oxo-N-(1,1,1-trifluoro-3-hydroxy-3-methylbutan-2-yl)-2,3-dihydropyridazine-4-carboxamide]
- IC50 (AHR [1]): 2.05e-07 M
- IC50 (AHR [2]; [4]): > 2e-05 M

Structure (SMILES): O=C(NCC(O)C(F)(F)F)c1cc(-c2ccc(Cl)c(F)c2)nn(-c2cccc(F)c2)c1=O (single isomer, unassigned) [Example 283, 6-(4-chloro-3-fluorophenyl)-2-(3-fluorophenyl)-3-oxo-N-(3,3,3-trifluoro-2-hydroxypropyl)-2,3-dihydropyridazine-4-carboxamide]
- IC50 (AHR [1]): 1.91e-07 M
- IC50 (AHR [2]; [4]): > 2e-05 M

Structure (SMILES): O=C(NCC(O)C(F)(F)F)c1cc(-c2ccc(Cl)c(F)c2)nn(-c2cccc(F)c2)c1=O (single isomer, unassigned) [Example 284, 6-(4-chloro-3-fluorophenyl)-2-(3-fluorophenyl)-3-oxo-N-(3,3,3-trifluoro-2-hydroxypropyl)-2,3-dihydropyridazine-4-carboxamide]
- IC50 (AHR [1]): 8.39e-07 M
- IC50 (AHR [2]; [3]): > 2e-05 M

Structure (SMILES): O=C(NC(CO)C1CCOC1)c1cc(-c2ccc(Cl)c(F)c2)nn(-c2cccc(F)c2)c1=O (single isomer, unassigned) [Example 292, 6-(4-Chloro-3-fluorophenyl)-2-(3-fluorophenyl)-N-[2-hydroxy-1-(tetrahydrofuran-3-yl)ethyl]-3-oxo-2,3-dihydropyridazine-4-carboxamide]
- IC50 (AHR [1]): 3.09e-07 M
- IC50 (AHR [2]; [4]): > 2e-05 M
